The nature of this test: Tested for inhibition of hemagglutinination in chicken red blood cell (RBC). The test is classed as functional, Gallus gallus.

Molecules are shown by their SMILES. Numbered stars: 1 amine (or outer) side, 2 acyl side, 3 side chain; on linkers, the order of the positions; unused ones are H or OH. Square brackets hold non-standard residues; d marks the D form. Peptide text beside a SMILES is read from it. * marks the point of attachment. X1 = O=C(O)C1(OCCCCC(=O)[*:2])CC(O)C(N[*:1])C([C@@H](O)[C@H](O)CO)O1; NH(1-naphthylmethyl) = c1ccc2c(CN*)cccc2c1

Usually Ki stands for a dissociation constant, usually derived from enzyme kinetics or from competition with a known ligand. A high value points to a looser hold on the target. With `COC1(C(=O)O)CC(O)C(NC(C)=O)C([C@@H](O)C(O)O)O1` (some centres undefined), the Ki was 2500 µM.

`COC(=O)C1(OC)CC(O)C(NC(C)=O)C([C@@H](O)[C@H](O)CO)O1` (some centres undefined) registered a Ki of 14000 µM.

Consider `COC1(C(=O)O)CC(O)C(NC(C)=O)C([C@@H](O)[C@H](O)CO)O1` (some centres undefined), for which the Ki was determined as 2500 µM.

With `CC(=O)NC1C(OC(=O)CNS(=O)(=O)c2cccc3c(N(C)C)cccc23)CC(OCCCCCCC(=O)NCc2cccc3ccccc23)(C(=O)O)OC1[C@@H](O)[C@H](O)CO` (some centres undefined), the affinity corresponds to a Ki of 3 µM.

`C=CC(=O)NCCCOCCCCOC1(C(=O)O)CC(O)C(NC(C)=O)C([C@@H](O)[C@H](O)CO)O1` (some centres undefined) showed a Ki of 1000 µM.

In turn, `C=CC(=O)NOCCCOCCCCOC1(C(C)=O)CC(O)C(NC(C)=O)C([C@@H](O)[C@H](O)CO)O1` (some centres undefined) displayed a Ki greater than 600 µM.

Consider `C=CC(=O)NOCCCOCCCCOC1(C(=O)O)CC(O)C(NC(C)=O)C([C@@H](O)[C@H](O)CO)O1` (some centres undefined), for which the Ki was 0.3 µM.

On to `C=CC(=O)NOCCCOCCCCOC1(C(N)=O)CC(O)C(NC(C)=O)C([C@@H](O)[C@H](O)CO)O1` (some centres undefined), for which the Ki was greater than 600 µM.

For `CC(=O)NC1C(O)CC(OCCCCC(=O)NCC(=O)NCC(=O)NCC(=O)NCC(=O)NCc2cccc3ccccc23)(C(=O)O)OC1[C@@H](O)[C@H](O)CO` (some centres undefined) (Ac-[X1]GGGG-{NH(1-naphthylmethyl)}), the Ki was determined as 30 µM.

The record behind these values is ChEMBL document CHEMBL1127361, “Polyacrylamides bearing pendant alpha-sialoside groups strongly inhibit agglutination of erythrocytes by influenza A virus: multivalency and steric stabilization of particulate biological systems” (J Med Chem, 1994).
